Five molecules from patent US20250368649A1, “TETRAHYDROPYRIDOPYRIMIDINE PAN-KRAS INHIBITORS” (Mirati Therapeutics, Inc., priority 2022, published 2025) can be followed below.

Some results are limits rather than exact numbers.

In one test the test system is H358 cells. As to the kind of experiment: Inhibition of KRas-mediated phosphorylation of ERK (Cisbio HTRF pERK), H358 cells. The class given is cell-based. Conditions: Homo sapiens; for IC50: NCI-H358, 3 h, 3 hr compound incubation, Cisbio pERK HTRF; for inhibition at 0.1 µM: NCI-H358, single point at 100 nM, 3 hrs compound incubation.
A further test addresses KRas G12D (Homo sapiens, UniProt P01116, G12D). As to the kind of experiment: biochemical. The conditions noted are these: Binding to KRas (IC50 nM) G12D, TR-FRET displacement, KRas G12D. (In TR-FRET formats the signal depends on donor and acceptor labels being close together.)
A further test concerns the target KRas G12C (Homo sapiens, UniProt P01116, G12C). The class given is binding. The conditions noted are these: single point, 10 nM compound, read-out: Binding to KRas (% inhibition at 10 nM) G12C.
Another test has as its system ASPC1 cells. As to the kind of experiment: Inhibition of KRas-mediated phosphorylation of ERK (Cisbio HTRF pERK), ASPC1 cells. It counts as cell-based. The conditions noted are these: Homo sapiens, AsPC-1 cells; for IC50: ASPC1, 3 h, 3 hr compound incubation, Cisbio pERK HTRF; for inhibition at 0.1 µM: ASPC1, single point at 100 nM, 3 hrs compound incubation.
A further test deals with KRas G12S (Homo sapiens, UniProt P01116, G12S). It counts as binding. The conditions noted are these: single point, 10 nM compound, read-out: Binding to KRas (% inhibition at 10 nM) G12S.
Chain of KRas G12S (P01116 1-169 isoform P01116-2 G12S): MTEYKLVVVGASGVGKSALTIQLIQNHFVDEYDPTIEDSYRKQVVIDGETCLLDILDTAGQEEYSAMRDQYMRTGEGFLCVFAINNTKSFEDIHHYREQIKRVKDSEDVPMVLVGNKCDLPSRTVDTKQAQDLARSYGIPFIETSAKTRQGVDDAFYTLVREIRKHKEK
For a further test, the system named is PSN1 cells. As to the kind of experiment: Inhibition of KRas-mediated phosphorylation of ERK (Cisbio HTRF pERK), PSN1 cells. The class given is cell-based. The conditions noted are these: Homo sapiens, PSN1, 3 h, 3 hour compound incubation, Cisbio pERK HTRF. An outline of the steps: (§1)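 Seeding density of 6,000 cells per well was used, with cultures kept in RPMI/10% FBS from day 1.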

A further test has as its system H727 cells. Nature of the test: Inhibition of KRas-mediated phosphorylation of ERK (Cisbio HTRF pERK), H727 cells. The class given is cell-based. Conditions: Homo sapiens; for IC50: NCI-H727, 3 h, 3 hr compound incubation, Cisbio pERK HTRF; for inhibition at 0.1 µM: NCI-H727, single point at 100 nM, 3 hrs compound incubation.
The next test concerns the target KRas G12A (Homo sapiens, UniProt P01116, G12A). The class given is binding. The conditions noted are these: single point, 10 nM compound, read-out: Binding to KRas (% inhibition at 10 nM) G12A.
A further test has as its system H460 cells. Nature of the test: Inhibition of KRas-mediated phosphorylation of ERK (Cisbio HTRF pERK), H460 cells. It counts as cell-based. The conditions noted are these: Homo sapiens; for IC50: NCI-H460, 3 h, 3 hr compound incubation, Cisbio pERK HTRF; for inhibition at 0.1 µM: NCI-H460, single point at 100 nM, 3 hrs compound incubation.
A further test deals with HCT116 cells. Nature of the test: Inhibition of KRas-mediated phosphorylation of ERK (Cisbio HTRF pERK), HCT116 cells. The class given is cell-based. The conditions noted are these: Homo sapiens; for IC50: HCT-116, 3 h, 3 hr compound incubation, Cisbio pERK HTRF; for inhibition at 0.1 µM: HCT-116, single point at 100 nM, 3 hrs compound incubation.
In the next test the target is KRas WT (Homo sapiens, UniProt P01116). As to the kind of experiment: KRas binding assay (TR-FRET displacement), KRas WT. The conditions noted are these: single point, 10 nM compound.
Chain of KRas WT (P01116 1-169 isoform P01116-2): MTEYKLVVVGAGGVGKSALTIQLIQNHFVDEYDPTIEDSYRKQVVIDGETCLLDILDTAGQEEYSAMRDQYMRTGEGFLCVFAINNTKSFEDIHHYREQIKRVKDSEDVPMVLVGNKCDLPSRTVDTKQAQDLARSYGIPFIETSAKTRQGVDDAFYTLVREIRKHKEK
The subject of a further test is MKN1 cells. Nature of the test: Inhibition of KRas-mediated phosphorylation of ERK (Cisbio HTRF pERK), MKN1 cells. The class given is cell-based. The conditions noted are these: Homo sapiens, MKN-1, 3 hour compound incubation, Cisbio pERK HTRF. The essentials:
as §1

In the next test the target is KRas G12R (Homo sapiens, UniProt P01116, G12R). Nature of the test: biochemical. Conditions: Binding to KRas (IC50 nM) G12R, TR-FRET displacement, KRas G12R.
Chain of KRas G12R (P01116 1-169 isoform P01116-2 G12R): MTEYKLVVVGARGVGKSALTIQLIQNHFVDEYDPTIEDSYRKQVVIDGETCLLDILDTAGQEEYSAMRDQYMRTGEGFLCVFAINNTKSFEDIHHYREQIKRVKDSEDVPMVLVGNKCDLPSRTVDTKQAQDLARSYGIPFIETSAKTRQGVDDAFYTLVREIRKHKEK
A further test has as its target KRas G13D (Homo sapiens, UniProt P01116, G13D). The class given is binding. Conditions: single point, 10 nM compound, read-out: Binding to KRas (% inhibition at 10 nM) G13D.
The next test concerns the target KRas G12V (Homo sapiens, UniProt P01116, G12V). As to the kind of experiment: biochemical. Conditions: Binding to KRas (IC50 nM) G12V, TR-FRET displacement, KRas G12V.
The test system of a further test is A549 cells. Nature of the test: Inhibition of KRas-mediated phosphorylation of ERK (Cisbio HTRF pERK), A549 cells. The conditions noted are these: Homo sapiens; for IC50: A549, 3 h, 3 hr compound incubation, Cisbio pERK HTRF; for inhibition at 0.1 µM: single point at 100 nM, 3 hrs compound incubation. It counts as cell-based.
The next test addresses KRas Q61H (Homo sapiens, UniProt P01116, Q61H). As to the kind of experiment: KRas binding assay (TR-FRET displacement), KRas Q61H. Conditions: single point, 10 nM compound.

Chain of KRas G13D (P01116 1-169 isoform P01116-2 G13D): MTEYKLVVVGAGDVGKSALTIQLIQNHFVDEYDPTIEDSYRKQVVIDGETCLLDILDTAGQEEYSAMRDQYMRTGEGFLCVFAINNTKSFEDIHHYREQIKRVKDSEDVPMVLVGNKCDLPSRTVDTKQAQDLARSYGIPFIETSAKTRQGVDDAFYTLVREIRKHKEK
Chain of KRas G12C (P01116 1-169 isoform P01116-2 G12C): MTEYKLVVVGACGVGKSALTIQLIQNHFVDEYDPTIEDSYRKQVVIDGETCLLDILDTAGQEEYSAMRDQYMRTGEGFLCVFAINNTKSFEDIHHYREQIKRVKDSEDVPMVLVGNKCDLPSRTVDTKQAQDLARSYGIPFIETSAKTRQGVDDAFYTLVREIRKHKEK
Chain of KRas G12D (P01116 1-169 isoform P01116-2 G12D): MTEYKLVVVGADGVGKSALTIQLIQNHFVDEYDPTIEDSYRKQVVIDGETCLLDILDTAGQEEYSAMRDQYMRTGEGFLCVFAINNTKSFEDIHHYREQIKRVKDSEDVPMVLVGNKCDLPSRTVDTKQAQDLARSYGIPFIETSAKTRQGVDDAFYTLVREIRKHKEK
Chain of KRas G12A (P01116 1-169 isoform P01116-2 G12A): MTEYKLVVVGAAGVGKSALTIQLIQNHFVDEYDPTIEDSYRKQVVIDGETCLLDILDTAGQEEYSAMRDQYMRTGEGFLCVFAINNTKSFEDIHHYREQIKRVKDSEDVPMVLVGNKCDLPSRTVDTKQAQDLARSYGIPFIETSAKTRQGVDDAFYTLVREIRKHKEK
Chain of KRas Q61H (P01116 1-169 isoform P01116-2 Q61H): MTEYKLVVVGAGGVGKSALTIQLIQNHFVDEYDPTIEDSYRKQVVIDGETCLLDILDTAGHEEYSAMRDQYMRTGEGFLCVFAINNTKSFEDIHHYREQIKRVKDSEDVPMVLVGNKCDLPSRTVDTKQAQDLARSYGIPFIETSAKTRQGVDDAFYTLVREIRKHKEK
Chain of KRas G12V (P01116 1-169 isoform P01116-2 G12V): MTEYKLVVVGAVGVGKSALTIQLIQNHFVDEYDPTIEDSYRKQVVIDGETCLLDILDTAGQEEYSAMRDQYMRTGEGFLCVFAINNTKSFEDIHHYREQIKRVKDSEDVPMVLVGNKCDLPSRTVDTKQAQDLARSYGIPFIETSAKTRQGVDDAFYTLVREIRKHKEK

The term IC50 denotes the concentration needed to halve the response being measured. Lower therefore signals greater potency. As a reminder, the inhibition is the relative decrease from the control value, in per cent. For `CCc1c(F)ccc2cc(O)cc(N3CCc4c(nc(OC[C@@]56CCCN5C[C@H](F)C6)nc4N4CCCn5nc(C(=O)N6CC7CC6C7)cc5C4)C3)c12` [Example 342, 2-azabicyclo[2.1.1]hexan-2-yl(5-(7-(8-ethyl-7-fluoro-3-hydroxynaphthalen-1-yl)-2-(((2R,7aS)-2-fluorohexahydro-1H-pyrrolizin-7a-yl)methoxy)-5,6,7,8-tetrahydropyrido[3,4-d]pyrimidin-4-yl)-5,6,7,8-tetrahydro-4H-pyrazolo[1,5-a][1,4]diazepin-2-yl)methanone], the IC50 in the test with H358 cells was 2 nM; at KRas G12D, less than 2 nM; in the test with ASPC1 cells, 2 nM; in the test on PSN1 cells, 2400 nM; in the test with H727 cells, 4 nM; with H460 cells, 23 nM. Moreover, the IC50 in the test on HCT116 cells was 74 nM; in the test on MKN1 cells, 3.9 nM; at KRas G12R, less than 2 nM; on KRas G12V, less than 2 nM; with A549 cells it was 8 nM. Also, the inhibition at 0.1 µM with H358 cells was determined as 100%; in the test on ASPC1 cells it was 96%; in the test with H727 cells, 80%; in the test with H460 cells, 86%; with HCT116 cells, 59%; in the test on A549 cells, 87%. Moreover, the inhibition at 0.01 µM is 99% at KRas G12C; 99% at KRas G12S; 96% at KRas G12A; 96% at KRas WT; 96% on KRas G13D; 96% on KRas Q61H.
As to `CCc1c(F)ccc2cc(O)cc(N3CCc4c(nc(OC[C@@]56CCCN5C[C@H](F)C6)nc4N4CCCn5nc(C(=O)N6CCC7CC76)cc5C4)C3)c12` (stereo partly drawn) [Example 344, 2-azabicyclo[3.1.0]hexan-2-yl(5-(7-(8-ethyl-7-fluoro-3-hydroxynaphthalen-1-yl)-2-(((2R,7aS)-2-fluorohexahydro-1H-pyrrolizin-7a-yl)methoxy)-5,6,7,8-tetrahydropyrido[3,4-d]pyrimidin-4-yl)-5,6,7,8-tetrahydro-4H-pyrazolo[1,5-a][1,4]diazepin-2-yl)methanone], the IC50 with H358 cells was 2 nM; on KRas G12D, less than 2 nM; in the test on ASPC1 cells, 2 nM; in the test with PSN1 cells, 2030 nM; in the test with H727 cells it was 3 nM; in the test with H460 cells, 24 nM. For the same molecule, the IC50 was 55 nM in the test on HCT116 cells; 4.1 nM in the test with MKN1 cells; less than 2 nM on KRas G12R; less than 2 nM on KRas G12V; 7 nM in the test with A549 cells. The inhibition at 0.1 µM in the test on H358 cells was 97%; with H460 cells, 88%; in the test on HCT116 cells, 57%; in the test with A549 cells, 85%. In addition, the inhibition at 0.01 µM turned out to be 99% at KRas G12C; 99% at KRas G12S; 97% at KRas G12A; 97% at KRas WT; 96% at KRas G13D; 97% on KRas Q61H.
Turning to `CCc1c(F)ccc2cc(O)cc(N3CCc4c(nc(OC[C@@]56CCCN5C[C@H](F)C6)nc4N4CCCCn5nc(C(=O)N(C)C)cc5C4)C3)c12` [Example 349, 5-(7-(8-ethyl-7-fluoro-3-hydroxynaphthalen-1-yl)-2-(((2R,7aS)-2-fluorohexahydro-1H-pyrrolizin-7a-yl)methoxy)-5,6,7,8-tetrahydropyrido[3,4-d]pyrimidin-4-yl)-N,N-dimethyl-4,5,6,7,8,9-hexahydropyrazolo[1,5-a][1,4]diazocine-2-carboxamide], the IC50 was 2 nM in the test on H358 cells; less than 2 nM at KRas G12D; 8 nM in the test with ASPC1 cells; 862 nM in the test on PSN1 cells; 2 nM in the test on H727 cells; 24 nM in the test on H460 cells. Also, the IC50 was 74 nM with HCT116 cells; 3.9 nM in the test with MKN1 cells; less than 2 nM on KRas G12R; less than 2 nM at KRas G12V; 6 nM in the test with A549 cells. The inhibition at 0.1 µM in the test on H358 cells was 101%; in the test on ASPC1 cells it was 96%; in the test with H727 cells it was 86%; with H460 cells, 84%; in the test with HCT116 cells it was 47%; with A549 cells, 75%. For the same molecule, the inhibition at 0.01 µM on KRas G12C was 99%; at KRas G12S, 99%; at KRas G12A, 96%; at KRas WT, 96%; on KRas G13D it was 96%; on KRas Q61H, 98%.
With `CCc1c(F)ccc2cc(O)cc(N3CCc4c(nc(OC[C@@]56CCCN5C[C@H](F)C6)nc4N4CCCn5nc(N)c(Cl)c5C4)C3)c12` [Example 358, 4-(4-(2-amino-3-chloro-7,8-dihydro-4H-pyrazolo[1,5-a][1,4]diazepin-5(6H)-yl)-2-(((2R,7aS)-2-fluorohexahydro-1H-pyrrolizin-7a-yl)methoxy)-5,6-dihydropyrido[3,4-d]pyrimidin-7(8H)-yl)-5-ethyl-6-fluoronaphthalen-2-ol], the IC50 with H358 cells is 4 nM; on KRas G12D it was less than 2 nM; with ASPC1 cells, 4 nM; in the test on PSN1 cells, 7400 nM; in the test with H727 cells, 16 nM; in the test on H460 cells it was 25 nM. The IC50 with HCT116 cells was 111 nM; in the test on MKN1 cells it was 20.6 nM; on KRas G12R it was less than 2 nM; at KRas G12V, less than 2 nM; in the test with A549 cells, 10 nM. The inhibition at 0.01 µM on KRas G12C is 99%; at KRas G12S, 99%; on KRas G12A it was 93%; on KRas WT it was 94%; on KRas G13D, 94%; at KRas Q61H, 95%. The inhibition at 0.1 µM is 95% in the test on ASPC1 cells, 72% with H727 cells, 90% in the test with H460 cells and 50% with HCT116 cells.
Consider `CCc1c(F)ccc2cc(O)cc(N3CCc4c(nc(OC[C@@]56CCCN5C[C@H](F)C6)nc4N4CCCCn5nc(C(=O)N6CCOCC6)cc5C4)C3)c12` [Example 360, (5-(7-(8-ethyl-7-fluoro-3-hydroxynaphthalen-1-yl)-2-(((2R,7aS)-2-fluorotetrahydro-1H-pyrrolizin-7a(5H)-yl)methoxy)-5,6,7,8-tetrahydropyrido[3,4-d]pyrimidin-4-yl)-4,5,6,7,8,9-hexahydropyrazolo[1,5-a][1,4]diazocin-2-yl)(morpholino)methanone], for which the IC50 is 2 nM with H358 cells; less than 2 nM on KRas G12D; 9 nM with ASPC1 cells; 1370 nM in the test with PSN1 cells; 4 nM in the test on H727 cells; 20 nM in the test on H460 cells. In addition, the IC50 in the test with HCT116 cells was 67 nM; in the test with MKN1 cells, 12 nM; on KRas G12R it was less than 2 nM; on KRas G12V, less than 2 nM; with A549 cells it was 9 nM. For the same molecule, the inhibition at 0.01 µM on KRas G12C amounted to 100%; at KRas G12S, 99%; on KRas G12A, 98%; at KRas WT, 97%; at KRas G13D, 97%; at KRas Q61H, 97%. Also, the inhibition at 0.1 µM in the test on H460 cells worked out at 87%; in the test with HCT116 cells, 49%.
